Tested on: MPTP-(1-methyl-4-phenyl-1,2,3,6-tetrahydropyridine) treated monkeys
Test: Parkinsonian score in MPTP-treated monkeys after administration of sunipetron
Assay type: in vivo
Conditions: 0.5 mg/kg or 1.0 mg/kg, rated at 4 time points vs vehicle, estimated plasma levels (FIG. 1)
Description: Neurol., 35:655-661, 1994, and Klockgether et al., Ann. Neurol., 30:717-723, 1991.
The behavioral effects of administration of sunipetron on parkinsonian score in MPTP-(1-methyl-4-phenyl-1,2,3,6-tetrahydropyridine) treated monkeys was determined. The methods employed are described in Greenemyre et al., supra and Klockgether et al., supra.
Briefly, parkinsonian monkeys were administered 0.5 mg/kg or 1.0 mg/kg of sunipetron and the severity of parkinsonian symptoms was rated at each of 4 time points after drug administration as compared with administration of a control solution (“Vehicle”).
The minimum effective plasma level was approximately 100 ng/ml.

O=C1CCC(=O)N1C[C@H]1CC[C@H]2CN(c3ncccn3)CCN2C1 [sunipetron]
minimum effective plasma level (reduction in parkinsonian score): approximately 100 ng/ml | plasma level at which the maximum reduction in parkinsonian score was attained: approximately 200 ng/ml

From patent publication US6608064B2, “Pharmaceutical agents for the treatment of Parkinson's disease, ADHD and microadenomas” (Pfizer Inc, priority 1998, dated 2003)
